Reference: paper PMC4287973, “Tumor cell-specific inhibition of MYC function using small molecule inhibitors of the HUWE1 ubiquitin ligase” (EMBO Molecular Medicine, 2014)

Tests used:
UBE3A = biological target: T1, UBE3A (Homo sapiens, UniProt Q05086); assay: in vitro HECT-domain auto-ubiquitination assay, UBE3A; assay type: biochemical
T1 construct: HECT-domains of multiple ligases auto-ubiquitinate in in vitro assays containing both UBA1 and UbcH5b
T1 sequence (Q05086 518-875 limits assumed): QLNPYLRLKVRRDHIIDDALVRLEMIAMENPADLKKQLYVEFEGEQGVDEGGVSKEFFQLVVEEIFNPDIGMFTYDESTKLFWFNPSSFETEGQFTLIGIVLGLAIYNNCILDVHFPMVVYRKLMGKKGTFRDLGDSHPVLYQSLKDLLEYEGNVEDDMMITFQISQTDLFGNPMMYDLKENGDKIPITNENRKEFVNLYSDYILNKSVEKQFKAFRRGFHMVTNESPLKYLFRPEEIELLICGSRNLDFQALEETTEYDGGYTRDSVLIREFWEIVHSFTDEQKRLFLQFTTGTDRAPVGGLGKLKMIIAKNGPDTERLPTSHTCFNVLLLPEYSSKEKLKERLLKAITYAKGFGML

[1] = system: MYC target gene sets in Ls174T cells; assay: Microarray gene expression and GSEA in Ls174T cells; assay type: cell-based, human; conditions: for number of genes downregulated (microarray) / number of genes upregulated (microarray): Ls174T, 24 h, cut-off fold change 2, P < 0.01
Description: Finally, shRNA-mediated depletion of p53 (Supplementary Fig S8, upper panel) had no effect on regulation of MYC target genes by either compound (Supplementary Fig S8, lower panel). Collectively, the data establish that these compounds block MYC-dependent transcriptional activation via inhibition of HUWE1 in colon cancer cells.
Control or HUWE1-depleted Ls174T cells were treated with HUWE1 inhibitors or DMSO as control for 24 h. Expression of different MYC-induced target genes was analyzed by RQ–PCR. Error bars show SD of triplicate technical assays from one representative experiment (n = 5). • Time-dependent expression of the differentiation marker MUC2 upon HUWE1 inhibition. Ls174T cells were treated with HUWE1 inhibitors for the indicated times. Error bars show SD of triplicate technical assays from one representative experiment (n = 3). • Gene set enrichment analysis (GSEA) of gene expression changes upon HUWE1 inhibition. Ls174T cells were treated for 24 h with either HUWE1 inhibitor or DMSO as control. RNA was isolated and subjected to a microarray and gene set enrichment analysis. […] P-values were calculated using a test for hypergeometric distribution. • Heat map comparing gene expression after HUWE1 depletion to treatment with HUWE1 inhibitors. The left panel summarizes expression of all genes (n = 10,452) ordered according to their expression after HUWE1 knockdown. […] MYC binding data were taken from HeLa cells. […] The upper panels display examples of MYC-activated gene sets and their response to inhibition of HUWE1.
Microarray analyses were performed on a 44K Whole Human Genome Array (G4845A 026652, Agilent), and raw data were generated with the Feature Extraction software v10.1.1.1 (Agilent).
The P-value was calculated using a one-sample two-tailed Student's t-test with μ = 0. Gene set enrichment analysis (GSEA) was performed using default settings and the C2 gene sets from the MSigDB (www.broadinstitute.org/gsea/msigdb). To compare two GSEA, the normalized enrichment scores (NES) for all repressed gene sets were plotted and gene sets containing > 25% ribosomal protein genes were highlighted. Data are presented as means with standard deviation unless defined differently in the figure legends. P-values were calculated using Student's t-test.

Ls174T cells = assay: Colony formation assay of Ls174T cells; assay type: cell-based; conditions: Homo sapiens, 120 h, stained after 5 days, read-out: estimated IC50 colony formation
Description: Partial shRNA-mediated depletion of HUWE1 led to a moderate, but highly significant reduction in IC50 value for growth inhibition by BI8622, arguing that growth inhibition is an on-target effect of the inhibitor (Supplementary Fig S6). […] Incubation with either compound retarded passage of Ls174T cells through all phases of the cell cycle, with the effect being strongest for G1. In contrast to colon carcinoma cells, HUWE1 is not required for proliferation of embryonic stem (ES) cells and deletion of HUWE1 instead delays the decrease of N-MYC levels that occurs upon removal of leukemia inhibitory factor (LIF) from the medium (Zhao et al, [2008]). […]
Figure 4 Effect of HUWE1 inhibition on growth and gene expression in epithelial and embryonic stem cells • Colony formation assays documenting growth of Ls174T cells in the presence of the indicated concentrations of HUWE1 inhibitors. […] A quantitation of N-MYC protein levels relative to Vinculin is shown below the blot (n = 3). • RQ–PCR assays documenting expression of MYC target gene expression in murine ES cells (F) and in crypt cultures of normal intestinal epithelial cells (G) upon inhibition of HUWE1. […]
HCT116, HEK293T, HeLa, HT29, ES, Phoenix, and U2OS cells were cultivated in DMEM (Sigma). […] Quantification of crystal violet staining was performed by extracting dye with 10% acetic acid and measuring absorbance at 590 nm. […]

Compound	IC50 (UBE3A) [µM]	number of genes downregulated (microarray) [1]	number of genes upregulated (microarray) [1]	effect on expression of sets of MYC-activated target genes in HUWE1-depleted cells ([1]; genome-wide analysis, HUWE1-depleted Ls174T cells)	IC50 (Ls174T cells) [µM]
Cc1c(C(=O)Nc2ccc(CN)cc2)ncnc1N1CCC(C#N)(c2ccccc2)CC1 [BI8622]	> 50	2,295	2,267	no statistically significant effect	8.4
NCc1cccc(CNc2ncnc3c(N4CCN(Cc5ccccc5)CC4)ncnc23)c1 [BI8626]	> 50	2,923	2,796	–	0.7
